Laboratory results published in US4812462A, “4,5,6,7-tetrahydro-1H-imidazo[4,5-c]pyridine-6-carboxylic acid analogs having antihypertensive activity” (Warner-Lambert Company, priority 1986, dated 1989).

Columns and labels:
[1] = tested on: 2 kidney, 1-clip Goldblatt hypertensive rat (RHR); experiment: blood pressure lowering in conscious 2 kidney, 1-clip Goldblatt (renal) hypertensive rats (RHR), AHP3; type: in vivo; conditions: 30 mg/kg ip, read-out: Max % decrease in blood pressure, 30 mg/kg ip in RHR
Protocol: Thus, for example, compounds of formula I when administered intraperitoneally or orally to 2 kidney, 1-clip Goldblatt (renal) hypertensive rats (See S Sen, et al., "Role of Renin-Angiotensin System in Chronic Renal Hypertensive Rats," Hypertension 1:427-434 (1979) and Clin. Soc. 57:53-62, 1979, "Antihypertensive Effect of Prolonged Blockade of Angiotensin Formation in Benign and Malignant, one-and two-kidney Goldblatt Hypertensive Rats".) at doses in the range of 1-100 mg/kg cause 10-80 mmHg drops in blood pressure. […] Angiotensin binding inhibition activity and blood pressure lowering activity in renal hypertensive rats of the optimally substituted examples of formula I are listed in Table 1. Blood pressure lowering activity in spontaneously hypertensive rats of optimally substituted examples of formula II are listed in Table 2.
[…] EVALUATION (AHP3)
A Method for the Direct Monitoring of Aortic Blood Pressure and Heart Rate from Conscious Rats
The continuous monitoring of pulsatile blood pressure (BP) from unrestrained conscious rats surgically equipped with polyethylene cannulas was accomplished by means of a computer assisted data capture scheme (CADCS). The basic elements of the methodology are the cannulation procedure and the CADCS.
Rats were anesthetized with Telazol (1:1 tiletamine HCl and zolazepam HCl); 20-40 mg/kg IM and the descending aorta exposed via a midline incision. Cannulas fabricated from polyethylene tubing were inserted into the aorta via an undersized puncture hole below the renal arteries. The puncture hole was made by a 23 G disposable needle with a section of the aorta clamped off above and below the puncture site. The cannulas, consisting of a PE100 (0.86 mm ID) body and a PE50 (0.58 mm ID) tip, were attached to a trocar, inserted through the psoas muscle, and passed subcutaneously along the midline of the back and externalized between the ears. The cannulas were anchored to the psoas muscle and between the scalulae (3-0 green braided suture). The midline incision was closed in two steps (muscle first, skin second) using continuous over-and-over sutures (4-0 chronic). Each rat was then given penicillin 30,000 units subcutaneously (Penicillin G Procaine Sterile Suspension).
The rats were fitted with a harness-springswivel assembly designed to protect the cannula and to provide the rat relative freedom of movement. The harnesses were fabricated from nylon hook and loop tape cemented to a metal plate to which spring wires (18-8 stainless steel), were attached to brass swivels. Each polyethylene cannula was channeled through a spring and connected through a swivel to a pressure transducer (Model P23Gb; Statham Instruments; Hato Rey, Puerto Rico) and an infusion pump (Sage model 234-7; Orion Research, Cambridge, Mass.) by means of PE100 tubing. While on test, each rat received a continuous slow infusion of heparinized saline solution (approximately 0.40 ml or 40 units of heparin per 24 hr period) to prevent clot formation. Additional "flushes" of the cannula with heparinized saline were carried out when the aortic pulse pressure (systolic minus diastolic) was less than 25 mm Hg.
The pulsatile blood pressure of each of 32 rats was monitored continuously by two signal conditioning units (Gould, Clev., Ohio). The signals from these units were monitored and digital data for mean, systolic, and diastolic blood pressures as well as for heart rate were calculated every 5 min by two in-laboratory computers (Hewlett Packard, Cupertino, Calif.). These in-laboratory computers have the capacity to store 32 days of this 5 min data. Communication with the mainframe research computer (IBM 3083) from the two inlaboratory computers allowed for data analysis and report generation. […]

[2] = target: angiotensin II binding to rat adrenal receptor preparations; experiment: inhibition of 125I-angiotensin II binding to rat adrenal receptor preparations

| IC50 [2] [µM] | Structure (SMILES) | change in vivo at 30 mg/kg [1] [%] |
| --- | --- | --- |
| 1 | O=C(O)C1Cc2c(ncn2Cc2ccccc2)CN1C(=O)C(c1ccccc1)c1ccccc1 (centres unmarked) [Example 169, 5-(Diphenylacetyl)-4,5,6,7-tetrahydro-1-(phenylmethyl)-1H-imidazo[4,5-c]pyridine-6-carboxylic acid] | -20 |
| 0.1 | O=C(O)C1Cc2c(ncn2CCC23CC4CC(CC(C4)C2)C3)CN1C(=O)C(c1ccccc1)c1ccccc1 (centres unmarked) [Example 2, 1-(2-(1-Adamantyl)ethyl)-5-diphenylacetyl-4,5,6,7-tetrahydro-1H-imidazo[4,5-c]pyridine-6-carboxylic acid] | -26 |
| 0.24 | O=C(O)C1Cc2c(ncn2CCC2CCCCC2)CN1C(=O)C(c1ccccc1)c1ccccc1 (centres unmarked) [Example 4, 1-(2-Cyclohexylethyl)-5-diphenylacetyl-4,5,6,7-tetrahydro-1H-imidazo[4,5-c]pyridine-6-carboxylic acid] | -13 |
| 2.1 | O=C(O)[C@@H]1Cc2c(ncn2Cc2ccccc2)CN1C(=O)C(c1ccc(F)cc1)c1ccc(F)cc1 [Example 23, (S)-5-[bis(4-fluorophenyl)acetyl]-4,5,6,7-tetrahydro-1-(phenylmethyl)-1H-imidazo[4,5-c]pyridine-6-carboxylic acid] | -22 |
